Assay results: PubChem BioAssay (NCI)
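Exposure lasted 48 hours, with cells grown in 96-well plates and compounds tested at five concentrations. TGI: concentration producing complete growth inhibition.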

Experiments:
Test in all cases: DTP human tumour cell line panel, 48 h
786-0 renal = test system: 786-0 renal
BT-549 breast = test system: BT-549 breast
CAKI-1 renal = test system: CAKI-1 renal
DU-145 prostate = test system: DU-145 prostate
HCC-2998 colon = test system: HCC-2998 colon
IGROV1 ovarian = test system: IGROV1 ovarian
NCI-H522 lung = test system: NCI-H522 lung
SK-MEL-28 melanoma = test system: SK-MEL-28 melanoma
UACC-257 melanoma = test system: UACC-257 melanoma
UACC-62 melanoma = test system: UACC-62 melanoma
SNB-75 CNS = test system: SNB-75 CNS

Structure (SMILES) | TGI (786-0 renal) | TGI (BT-549 breast) | TGI (CAKI-1 renal) | TGI (DU-145 prostate) | TGI (HCC-2998 colon) | TGI (IGROV1 ovarian) | TGI (NCI-H522 lung) | TGI (SK-MEL-28 melanoma) | TGI (UACC-257 melanoma) | TGI (UACC-62 melanoma) | TGI (SNB-75 CNS)
c1ccc2c(c1)CCc1c-2n(CCN2CCOCC2)c2ccccc12 | > 100 µM | > 100 µM | > 100 µM | > 100 µM | > 100 µM | > 100 µM | 28.6 µM | > 100 µM | > 100 µM | > 100 µM | 
COc1c(O)cc(O)c2c(=O)cc(-c3ccccc3)oc12 | > 100 µM | > 100 µM | > 100 µM | 79.5 µM | > 100 µM | > 100 µM | > 100 µM | > 100 µM | > 100 µM | > 100 µM | > 100 µM
CCOC(=O)c1c(N2CCCC2)ncn(Cc2ccccc2)c1=S | > 100 µM | > 100 µM | 88.3 µM | > 100 µM | > 100 µM | > 100 µM | > 100 µM | > 100 µM | > 100 µM | > 100 µM | > 100 µM
O=c1cc(N2CCN(c3cc(=O)n4ccccc4n3)CC2)oc2ccccc12 | > 100 µM | > 100 µM | > 100 µM | > 100 µM | > 100 µM | > 100 µM | > 100 µM | > 100 µM | > 71.8 µM | > 100 µM | > 54.3 µM
Cc1c2c(n(CCc3ccc(Cl)cc3)c1C)NC(c1ccccc1)C(C#N)S2(=O)=O (stereo not given) | > 100 µM | > 100 µM | > 100 µM | > 100 µM | > 100 µM | > 100 µM | > 100 µM | > 100 µM | > 100 µM | > 100 µM | > 100 µM
O=c1oc2ccccc2cc1-c1cn2cc(Cl)ccc2n1 | 8.95 µM | 21.9 µM | 3.28 µM | > 36.8 µM | 21.7 µM | 17.7 µM | 0.722 µM | 17.9 µM | > 45.9 µM | 0.898 µM | > 21.2 µM
COC(=O)c1c(OC(C)=O)ccc2c1c1c(n2C)C(=O)c2ccccc2C1=O | > 100 µM | 57 µM | 61.7 µM | 62.5 µM | 63.5 µM | 22.3 µM | 67.6 µM | > 100 µM | 44.8 µM | > 100 µM | 41.3 µM
CCOP(=O)(OCC)C1CC(n2cc(C)c(=O)[nH]c2=O)OC1CO (stereo not given) | > 100 µM | > 100 µM | > 100 µM | > 100 µM | > 100 µM | > 100 µM | > 100 µM | > 100 µM | > 100 µM | > 100 µM | > 100 µM
COc1ccc2nc3cc([N+](=O)[O-])ccc3c(Nc3ccc(S(=O)(=O)NC(C)=O)cc3)c2c1 | > 100 µM | > 100 µM | > 100 µM | > 100 µM | > 100 µM |  | > 100 µM | > 100 µM | > 100 µM | > 100 µM | 
O=C(Nc1nc2ccccc2s1)c1cc([N+](=O)[O-])ccc1Cl | > 58.6 µM | > 30.9 µM | > 100 µM | 86.3 µM | 53.6 µM |  | 11.6 µM | > 100 µM | > 100 µM | > 100 µM | > 100 µM
CC1=NN(c2nc(N)nc(/C(C#N)=C/c3cccn3-c3cc(Cl)cc(Cl)c3)n2)C(C)(C)C1 | > 100 µM | > 100 µM | > 100 µM | > 100 µM | > 100 µM | > 100 µM | > 100 µM | > 100 µM | > 100 µM | > 100 µM | 99.7 µM
CC1(C)[C@H]2CC[C@]1(C)[C@H](OC(=O)NNC(=O)O[C@@H]1C[C@@H]3CC[C@@]1(C)C3(C)C)C2 | 50.3 µM | 42.9 µM | 28.8 µM | 32.7 µM | 27.7 µM | 30.4 µM | 30.7 µM | > 100 µM | 33 µM | 38.8 µM | 28.1 µM
CC1(O)CC(=O)c2c(cc3ccc(-c4c5c(c(O)c6c(O)cccc46)C(=O)CC(C)(O)C5)c(O)c3c2O)C1 (stereo not given) | 7.64 µM | 6.75 µM | 2.92 µM | 3.43 µM | 1.07 µM | 3.43 µM | 1.12 µM | 7.01 µM | 1.3 µM | > 100 µM | 0.773 µM
O=c1c2cc(I)ccc2nc(-c2cccs2)n1-c1ccc(O)cc1 | 29.8 µM | 27.9 µM | 32.9 µM | 19.7 µM | 30.6 µM | 46.7 µM | 30.1 µM | 34 µM | 22.1 µM | 26.9 µM | 
CCCCCCCCCCCCCCCCCCNc1ccn(C2OC(COP(=O)(O)OCC3OC(n4cc(F)c(NCCCCCCCCCCCCCCCCCC)nc4=O)CC3O)C(O)C2O)c(=O)n1 (stereo not given) | > 100 µM | > 100 µM | > 100 µM | > 100 µM | > 100 µM | > 100 µM | > 100 µM | > 100 µM | > 100 µM | > 100 µM | > 100 µM
COc1ccc(C(SC2C(O)C(CO)OC2n2ccc(N)nc2=O)(c2ccccc2)c2ccc(OC)cc2)cc1 (stereo not given) | 30.8 µM | 43 µM | > 100 µM | 39.4 µM | 32.6 µM | 67 µM | 31.2 µM | 75.6 µM | 41.7 µM | 33 µM | 46.6 µM
COc1ccccc1NC(=O)CC(=O)N1N=C(C)C(N=Nc2ccc(C(=O)O)cc2)C1=O (stereo not given) | > 100 µM | > 100 µM | > 100 µM | > 100 µM | > 100 µM | > 100 µM | > 100 µM | > 100 µM | > 100 µM | > 100 µM | 6.06 µM
COc1cc(C2c3cc4c(cc3OC(NNC(N)=O)C2C)OCO4)cc(OC)c1O (stereo not given) | > 80.1 µM | > 100 µM | > 100 µM | 33.7 µM | 6.5 µM | > 100 µM | 10.5 µM | > 100 µM | > 100 µM | > 100 µM | > 100 µM
COc1ccc(NC(C)=O)cc1N1C(=O)/C(=C\c2cc(OC)c(OC)c(OC)c2)SC1c1ccccc1 (stereo not given) | > 100 µM | > 100 µM | 60.2 µM | > 100 µM | > 100 µM | > 100 µM | > 100 µM | > 100 µM | > 100 µM | > 100 µM | > 100 µM
C=C(C)C(O)C(O)c1c(OC)ccc2ccc(=O)oc12 (stereo not given) | > 100 µM | > 100 µM | > 100 µM | > 100 µM | > 100 µM | > 100 µM | > 100 µM | > 100 µM | > 100 µM | > 100 µM | > 100 µM
COC1OC2COC1(OC)C1OC(C)(C)OC21 (stereo not given) | > 100 µM | > 100 µM | > 100 µM | > 100 µM | > 100 µM | > 100 µM | > 100 µM | > 100 µM | > 100 µM | > 100 µM | > 100 µM
S=C1SCN(Cc2ccco2)CN1c1ccc(Br)cc1 | 33 µM | 44 µM | 42.7 µM | > 100 µM | 27.5 µM | 45.7 µM | 23.7 µM | 43.1 µM | 42.6 µM | 15.2 µM | > 100 µM
O=C(Nc1ccccc1)N(CCCCN(Cc1ccccc1)C(=O)Nc1ccccc1)Cc1ccccc1 | > 100 µM | > 100 µM | > 100 µM | > 100 µM | > 100 µM | > 100 µM | > 100 µM | > 100 µM | > 100 µM | > 100 µM | > 100 µM
CCOC(=O)c1cc2c(C(=O)c3ccc([N+](=O)[O-])cc3)c(C(C)=O)ccc2[nH]1 | > 100 µM | > 100 µM | > 100 µM | > 100 µM | > 100 µM | > 100 µM | 36.5 µM | > 100 µM | > 100 µM | > 100 µM | 32.9 µM
CCCC(=O)NC(Nc1ccc(S(=O)(=O)Nc2nc(C)cc(C)n2)cc1)(C(F)(F)F)C(F)(F)F | > 100 µM | > 100 µM | > 100 µM | > 100 µM | > 100 µM | > 100 µM | > 100 µM | > 100 µM | > 100 µM | > 100 µM | > 100 µM
CCNC(=O)c1cc(/C=C/c2ccc([N+](=O)[O-])o2)nc2ccccc12 | > 100 µM | > 100 µM | > 100 µM | > 100 µM | > 100 µM | > 65.8 µM | > 49 µM | 71.4 µM | 28.2 µM | > 100 µM | 63.8 µM
O=c1ccn(CC2(CO)CC(Cc3ccccc3)C2)c(=O)[nH]1 (stereo not given) | > 100 µM | > 100 µM | > 100 µM | > 100 µM | > 100 µM | > 100 µM | > 100 µM | > 100 µM | > 100 µM | > 100 µM | > 100 µM
Cc1ccc2c(c1C)C(=O)/C(=C/c1ccccc1C(=O)O)C2 | > 100 µM | > 100 µM | > 100 µM | > 100 µM | > 100 µM | > 100 µM | > 100 µM | > 100 µM | > 100 µM | > 100 µM | > 100 µM
CC(C)C(OC(=O)c1ccc(NCc2cc(O)ccc2O)cc1)C(C)C | 2.42 µM | 2.23 µM | 0.701 µM | 20.9 µM | 10.2 µM | 2.35 µM | 0.391 µM | 3.23 µM | 3.83 µM | 3.27 µM | 3.7 µM
CCN(CC)c1ccc2cc(C(=O)Nc3cccc4ccccc34)c(=N)oc2c1 | > 100 µM | 62.1 µM | > 100 µM | > 100 µM | > 100 µM | > 100 µM | > 100 µM | > 100 µM | > 100 µM | > 100 µM | > 100 µM
